Where “and” joins values, the source holds several entries; their conditions need not be identical. Identical values can stand only once.
Tests used:
[1] = system: RPS19-insufficient cord blood CD34+ HSPCs; assay: In vitro differentiation of cord blood CD34+ HSPCs transduced with shRNA against RPS19 (cell count and flow cytometry); for erythroid expansion in RPS19-insufficiency, % of control: untreated 8.7%; type: cell-based, human; details: for increase of erythropoiesis in RPS19-insufficiency compared with control treated cells: CD235+ erythroid cells after 15 days, inhibitors at working concentrations for TGFβ inhibition every three days, Fig. 1d
Protocol: Cells were plated at 2000 cell per well in 96-well plates in the presence or absence of doxycycline. Relative amounts of live cells were quantified by luciferase-based Cell titer-Glo® assay. b TGFβR1 inhibitors were assessed for their ability to increase cell expansion in RPS19-insuffiency. As a control, vehicle alone (no doxycycline) is represented at the far left while all other samples were treated with doxycycline to induce RPS19-insufficiency. c Kit^+ erythroid progenitors were grown in the absence of doxycycline and in the presence of 10 µM of indicated compound. In addition, cells were treated with 5 ng/ml of TGFβ1 for 5 days before being subjected to Cell titer-Glo® assay. d Differentiating cord blood CD34^+ progenitors were transduced with shRNA against luciferase or RPS19 and treated with inhibitors at working concentrations for TGFβ inhibition every three days. […] Cells were counted and CD235^+ erythroid (i and iii) and CD11b^+ myeloid cell (ii and iv) percentages were determined by flow cytometry. The number of erythroid or myeloid cells is expressed as a percentage of the number of that lineage with no cytokine or drug treatment. Bars represent means ± SD with individual data points overlaid. n = 3 independent experiments performed in triplicate. Statistics: two-tailed Student’s t test, significant *p < 0.05. Also see Supplementary Fig. 1. Erythroid expansion is depicted in red while myeloid is in purple. Source data are provided as a Source Data file.
(§1) Cells were counted and assessed for cell surface expression of CD235. b Lin-Kit^+ hematopoietic progenitors were obtained from three mouse embryos expressing tetracycline-inducible shRNA against RPS19 at day E14.5 or three untreated mice, and thee mature RPL11^+/+ or three mature RPL11^+/lox mice treated with tamoxifen for eight weeks. […] Values were expressed as a percentage relative to untreated controls. c, d Intracellular phosphorylation of NLK at Thr298 was determined by capillary electrophoresis using the Peggy Sue™ Automated Western blotting platform. After lysis, 4 µg of protein from the CD235^+ population was probed against pThr298-NLK and normalized to GAPDH. […] After counting the total cell population, the ratio of CD235^+ erythroblasts was determined by flow cytometry and number of CD235^+ erythroblasts calculated. This was expressed as a percentage of the average number of erythroid cells present in untreated healthy controls. f NLK phosphorylation was assessed by capillary electrophoresis as above. Bars represent means ± SD with individual data points overlaid. […] Statistics: two-tailed Student’s t test, significant *p < 0.05. Also see Supplementary Fig. 8. Source data are provided as a Source Data file.
Primary human CD34^+ hematopoietic stem and progenitor cells were purified from cord or peripheral blood (New York Blood Center) or from human fetal liver tissue (Advanced Bioscience Resources and University of California, Los Angeles Center for AIDS Research) by using magnetic-activated cell sorting (Miltenyi Biotec) and were cryopreserved. Upon thawing, cells were cultured in x-Vivo15 media (Lonza) containing 10% fetal bovine serum, fms-related tyrosine kinase 3 (50 ng/ml), […] (50 ng/ml), interleukin-3 (IL-3; 20 ng/ml), interleukin-6 (IL-6; 20 ng/ml), and stem cell factor (50 ng/ml). When applied, TGFβ1 was added at 5 ng/ml. Kp53A1 cells were obtained from Javier Leon and cultured in DMEM supplemented with 10% fetal bovine serum at 37 or 32 °C.

[2] = system: RPL11-insufficient Lin-Kit+ HSPCs; assay: Erythroid differentiation of Lin-Kit+ HSPCs from tamoxifen-treated RPL11+/lox mice; type: cell-based, mouse; details: SD208; 8 days; three RPL11+/lox mice; without SD208 31.2, 26.4, 18.6%; Fig. 8b
Protocol: as §1, with “Thr298” left out, “SueTM” for “Sue™”, “platform.” for “platform. After lysis, 4 µg of protein from the CD235^+ population was probed against pThr298-NLK and normalized to GAPDH.”, “Student's” for “Student’s”, “file. Three mature RPL11^+/lox mice were treated with tamoxifen for eight weeks to induce heterozygous deletion of RPL11. As controls, three different RPL11^+/+ littermates of the same mouse strain were treated with tamoxifen.” for “file.”

Compound | erythroid expansion (CD235) in RPS19-insufficient HSPCs ([1]; 12 days, recommended concentrations, rebuttal Experiment 12) | increase of erythropoiesis in RPS19-insufficiency compared with control treated cells [1] [fold] | improvement of erythropoiesis (comparison of SD208 with p38 inhibitors) ([1]; CD235+, 12 days, recommended concentrations, Supplementary Fig. 2b) | activity at 5 µM ([1]; Homo sapiens, 360 h, read-out: erythroid expansion in RPS19-insufficiency, % of control) [%] | erythroid expansion, % of vehicle treated control cells ([1]; RPS19-insufficient cells, 5 µM, with or without TGFβ, Fig. 1e.iii) [%] | RPS19-insufficient CD235+ erythroblast expansion, % of ribosome-competent controls ([1]; SD208 alone every three days, 15 days, untreated […], Fig. 2d.i) [%] | RPS19-insufficient CD235+ erythroblast expansion, % of ribosome-competent controls, combined with siRNA against NLK ([1]; SD208 plus siNLK, 15 days, untreated […], Fig. 2d.i) [%] | effect on differentiation of non-erythroid hematopoietic lineages ([1]; control or ribosome-insufficient cells) | erythropoiesis, % of controls [2]
Fc1ccc(Cl)cc1-c1nc(Nc2ccncc2)c2nccnc2n1 [SD208] | significantly increased | 6.3 | improved erythropoiesis | 38.7 | 428.6 | 40.3 | 43.6 | did not impact | 57.3% and 56.8% and 50.3%
NC(=O)c1ccc(-c2nc(-c3ccc4c(c3)OCO4)c(-c3ccccn3)[nH]2)cc1 [SB431542] |  | 3.2 |  |  |  |  |  |  | 
